{
  "source": "patent US20260034192A1",
  "about": "(University of Saskatchewan, priority 2022, published 2026)",
  "assay_type_in_all_cases": "in vivo, cattle",
  "key": {"[1]": {"system": "mature Angus heifers", "test": "Cetrorelix versus estradiol benzoate synchronization protocol with AI, random day of cycle (Example 7)", "procedure": "This experiment was conducted on 38 mature Angus heifers at the Federal University of Santa Maria in Brazil. Heifers on a random day of the cycle (defined as Day 0) were divided into 2 groups (n=19 per group) and treated with a single i/m injection of 3 mg cetrorelix or with estradiol benzoate (1 mg i/m). A progesterone-releasing device (CIDR) was placed in the vagina of heifers at this time. Eight days after the cetrorelix or estradiol treatments, heifers were given 500 ug cloprostenol (prostaglandin analog) i/m injections and the CIDR device was removed. […] Heifers were given 250 ug gonadorelin acetate (GnRH analog) i/m injection at the time of artificial insemination. […] Pregnancy diagnosis was done 29-30 days after artificial insemination."}, "[2]": {"system": "Brahman x Angus cross beef post-partum cows", "test": "Field trial of fixed-time AI after cetrorelix versus estradiol protocol (Example 8)", "procedure": "This field trial was conducted by a faculty member of the Federal University of Santa Maria at a client beef farm in Brazil in December 2022. A total of 216 Brahman x Angus cross beef post-partum cows were used for this experiment. Cows were divided into two treatment groups ([…]) and were either given cetrorelix 3 mg i/m or estradiol benzoate on a random day of the cycle (defined as Day 0). An intravaginal progesterone device (CIDR) was placed in all cows on Day 0. The CIDR devices were removed on Day 8 and animals were given prostaglandin F2a analog and equine choriogonadotropin (eCG). Fixed-time artificial insemination was done 54 hrs after CIDR removal and animals were given GnRH at this time. Pregnancy diagnosis was performed on Day 30 after artificial insemination. Transrectal ultrasound examinations were performed on Day 0, Day 8, Day 10 and Day 40."}, "[3]": {"system": "Hereford crossbred heifers", "test": "Cetrorelix pre-treatment before kisspeptin-10 in low-progesterone heifer model (Example 1)", "conditions": "for Ovulation rate after treatments: number of heifer/total: extant dominant follicle", "procedure": "Methods: The human Kisspeptin-10 (hKP-10) peptide (YNWNSFGLRF-NH2; SEQ ID NO: 1) was custom synthetized at >95% of purity (MW: 1318.44 g/mol) by GenScript USA Inc, Piscataway, NJ, USA. The sequence is based on the predicted C-terminal region (112-121-NH2) of human metastin (Gen Bank accession #AY117143) and has been previously used in cattle. The peptide was previously tested for solubility and was dissolved in ultrapure water at 10 mg/mL.\nThe heifers were maintained in outdoor pens at the University of Saskatchewan Goodale Research Farm (52° north and 106° west). Heifers were fed barley silage and had hay and water ad libitum. A mineral salt block was available to heifers throughout the study period. All procedures were performed in accordance with Canadian Council on Animal Care and were approved by the University of Saskatchewan Protocol Review Committee.\nImmediately after ultrasound examination, heifers were given PGF2a twice at an interval of 12-hours. The low-progesterone bovine model described previously (Leonardi et al. 2019) was used to test the hypothesis. Briefly, the ovaries were examined daily by ultrasonography to detect ovulation. Three days after ovulation, follicles ≥5 mm in diameter in both ovaries were ablated by transvaginal ultrasound-guided follicle aspiration, inducing the emergence of new follicular wave 1.5 days after the procedure (Bergfelt et al. 1994). After follicular ablation, a progesterone device was placed in the vagina (CIDR; Zoetis). The day of wave emergence (Day 0) was defined as the day when the follicle of wave was first recorded (4 to 5 mm in diameter) with concurrent increase in diameter. Heifers were given PGF2α im on Days 3.5 and 4 (i.e., 8 and 8.5 days after ovulation) to cause luteolysis, however, the CIDR devices were left in place until Day 12 to maintain a low-progesterone milieu sufficient to prevent spontaneous ovulation. On Day 6, an indwelling jugular catheter was placed as described (Bergfelt et al. 1997) and heifers were assigned randomly to three groups (n=5 per group): 1) 3 iv doses of 15 mg human kisspeptin-10 at 1 h intervals (Kp10 group), 2) pretreatment with single im dose of Cetrorelix acetate (20 μg/Kg of body weight, GnRH antagonist—Sigma #C5249 diluted in 5% D-Manitol w/v, Sigma #M4125) followed 3 h later with 3 iv doses of 15 mg human kisspeptin-10 at 1 h intervals (Cetrorelix group), or 3) 3 iv doses of normal saline at 1 h intervals (Control group). Following treatment (on Day 6), ovarian ultrasound examinations were performed daily until the end of the experiment to detect ovulation of the extant dominant follicle (i.e., dominant follicle present at the time of treatment) or of the dominant follicle originating from a subsequent wave. The progesterone device was withdrawn on Day 12 (i.e., thirteen days after insertion) and ultrasound examinations were continued until ovulation was detected.\nBlood samples and hormone assays: Serial blood samples on the day of treatment were collected at 15 minute intervals from −30 to 150 min (0 min=time of first hKP-10 or saline injection) using the indwelling jugular catheter. All blood samples were collected in heparinized tubes (Vacutainer, BD, Franklin Lakes NJ, USA). Immediately after sampling, tubes were centrifuged at 1,500×g for 15 min, and plasma was separated and stored at −20° C.\nThe plasma samples from both experiments were analyzed for LH and progesterone concentration at the University of Wisconsin (Madison, WI, USA) in Dr O. J. Ginther's Research Laboratory. Plasma LH concentrations were measured with a validated radioimmunoassay for cattle (Bolt et al. 1990) with modifications as reported Ginther et al. 1999). Briefly, LH concentrations were measured in duplicate using USDA-bLH-B-6 for ^125I-iodination and for preparing reference standards, and USDA-309-684P as the primary antibody (National Hormone and Pituitary Program, Torrance, CA, USA). […]"}, "[4]": {"conditions": "3 mg cetrorelix or 1 mg estradiol benzoate i/m"}, "[5]": {"conditions": "30 days after fixed-time artificial insemination"}, "[6]": {"conditions": "Day 6 of wave, low progesterone, Kp10 3 x 15 mg iv, Cetrorelix 20 μg/Kg im 3 h before Kp10"}, "[7]": {"conditions": "Kp10 3 x 15 mg iv, Cetrorelix 20 μg/Kg im 3 h before Kp10"}},
  "note": "Where “and” joins values, the source holds several entries; their conditions need not be identical. Identical values can stand only once. Marks after values point to notes of the source that are not given here. Ends that are not written are not given here.",
  "data": [
    {"molecule": "C[C@]12CC[C@@H]3c4ccc(OC(=O)c5ccccc5)cc4CC[C@H]3[C@@H]1CC[C@@H]2O", "note": "[Estradiol benzoate, estradiol benzoate]", "values": [
      {"measurement": "Pregnant/Double AI", "setting": "[1]; [4]", "result": "7/12"},
      {"measurement": "Pregnant/Double AI, percent", "setting": "[1]; [4]", "result": 58, "unit": "%"},
      {"measurement": "Pregnant/Single AI", "setting": "[1]; [4]", "result": "6/7"},
      {"measurement": "Pregnant/Single AI, percent", "setting": "[1]; [4]", "result": 86, "unit": "%"},
      {"measurement": "Pregnant/Total, percent (pregnancy rate)", "setting": "[1]; random day of cycle, 3 mg cetrorelix i/m or 1 mg estradiol benzoate i/m, CIDR 8 days", "result": 68, "unit": "%"},
      {"measurement": "Pregnant/Total", "setting": "[1]; random day of cycle, 3 mg cetrorelix i/m or 1 mg estradiol benzoate i/m, CIDR 8 days, PGF, GnRH at AI", "result": "13/19"},
      {"measurement": "Conception rate: Percent", "setting": "[2]; [5]", "result": 45.6, "unit": "%"},
      {"measurement": "Conception rate: Pregnant/AI", "setting": "[2]; [5]", "result": "48/106*"},
      {"measurement": "Conception rate: Percent", "setting": "[2]; 30 days after fixed-time artificial insemination, listed as estradiol", "result": 45.6, "unit": "%"},
      {"measurement": "Size of the dominant follicle on Day 8 (at PGF)", "setting": "[2]; cetrorelix 3 mg i/m or estradiol benzoate on Day 0, CIDR removal Day 8, in mm", "result": "8.60 ± 0.39"},
      {"measurement": "Size of the dominant follicle on Day 10 (at AI)", "setting": "[2]; cetrorelix 3 mg i/m or estradiol benzoate on Day 0, in mm", "result": "11.38 ± 0.56"}
    ]},
    {"molecule": "Kp10: human Kisspeptin-10 (hKP-10) peptide YNWNSFGLRF-NH2; SEQ ID NO: 1 (listed as Homo sapiens)", "values": [
      {"measurement": "Interval between treatment and ovulation (hours after treatment)", "setting": "[3]; Day 6 of wave, low progesterone, Kp10 3 x 15 mg iv", "result": 48, "unit": "h"},
      {"measurement": "Dominant follicle diameter 24 h after treatment", "setting": "[3]; [6]", "result": "12.24 ± 0.89", "unit": "mm"},
      {"measurement": "Dominant follicle diameter 48 h after treatment", "setting": "[3]; [6]", "result": 16.51, "unit": "mm"},
      {"measurement": "Dominant follicle diameter at time of treatment", "setting": "[3]; [6]", "result": "11.34 ± 0.91", "unit": "mm"},
      {"measurement": "Emergence of a new follicular wave after treatment", "setting": "[3]; Day 6 of wave, low progesterone, Kp10 3 x 15 mg iv, Cetrorelix single im 20 μg/Kg 3 h before Kp10", "result": "2.75 ± 0.75", "unit": "days"},
      {"measurement": "Day of ovulation of new dominant follicles after CIDR removal (Day 12)", "setting": "[3]; Day of follicular wave", "result": 15},
      {"measurement": "Heifers in which a new wave emergence occurred", "setting": "[3]; [7]", "result": "4 of 5"},
      {"measurement": "Number of ovulations after CIDR removal on Day 12: Extant dominant follicle", "setting": "[3]; [7]", "result": "1/1"},
      {"measurement": "Number of ovulations after CIDR removal on Day 12: New dominant follicle", "setting": "[3]; [7]", "result": "4/4"},
      {"measurement": "Plasma LH concentration / kisspeptin-induced LH surge", "setting": "[3]; [7]", "result": "higher plasma LH concentrations"},
      {"measurement": "Ovulation rate after treatments: number of heifer/total", "setting": "[3]; [6]", "result": "4 of 5 and 4/5^a"},
      {"measurement": "Ovulation rate after treatments: number of heifer/total", "setting": "[3]; Day 6 of wave, low progesterone, Kp10 3 x 15 mg iv, Cetrorelix 20 μg/Kg im 3 h before Kp10, listed as kisspeptin", "result": "4 out of 5"}
    ]}
  ]
}
